Measured values taken from the supplement of paper PMC10307832.

Tests used:
Experiment in all cases: relative viability (nuclei count vs DMSO), 5 days (fraction); higher = more cells survive
[1] = compound: CN[C@@H]1C[C@H]2O[C@@](C)([C@@H]1OC)n1c3ccccc3c3c4c(c5c6ccccc6n2c5c31)C(=O)NC4 [Staurosporine] + CS(=O)(=O)N1CCN(Cc2cc3nc(-c4cccc5[nH]ncc45)nc(N4CCOCC4)c3s2)CC1 [Pictilisib] (partner 1 µM)
Procedure, shortened: (§1)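 Five library-drug doses in √10 steps were combined with a fixed anchor-drug dose, or a single drug was given alone, by pin tool to lung cancer cell lines in 1536-well plates the day after seeding. Nuclei were stained and counted after 5 days. Relative viability is the nuclei count in treated wells over that in vehicle wells, taken as the median of duplicate plates.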

[2] = compound: CC1=C(CC(=O)O)c2cc(F)ccc2/C1=C\c1ccc([S+](C)[O-])cc1 [Sulindac] + CS(=O)(=O)N1CCN(Cc2cc3nc(-c4cccc5[nH]ncc45)nc(N4CCOCC4)c3s2)CC1 [Pictilisib] (partner 1 µM)
Procedure, shortened: as §1

[3] = compound: O=c1[nH]cc(F)c(=O)[nH]1 [5-Fluorouracil] + CS(=O)(=O)N1CCN(Cc2cc3nc(-c4cccc5[nH]ncc45)nc(N4CCOCC4)c3s2)CC1 [Pictilisib] (partner 1 µM)
Procedure, shortened: as §1

[4] = compound: CC1=C(CC(=O)O)c2cc(F)ccc2/C1=C\c1ccc([S+](C)[O-])cc1 [Sulindac] + Nc1ncn([C@H]2C[C@H](O)[C@@H](CO)O2)c(=O)n1 [Decitabine] (partner 2 µM)
Procedure, shortened: as §1

Row | Cell Line | relative viability ([1]; first compound 0.005 µM) | relative viability ([1]; first compound 0.01581 µM) | relative viability ([1]; first compound 0.05 µM) | relative viability ([1]; first compound 0.1581 µM) | relative viability ([1]; first compound 0.5 µM) | relative viability ([2]; first compound 0.08 µM) | relative viability ([2]; first compound 0.253 µM) | relative viability ([2]; first compound 0.8 µM) | relative viability ([2]; first compound 2.53 µM) | relative viability ([2]; first compound 8 µM) | relative viability ([3]; first compound 0.02 µM) | relative viability ([3]; first compound 0.2 µM) | relative viability ([3]; first compound 0.6325 µM) | relative viability ([3]; first compound 2 µM) | relative viability ([4]; first compound 0.08 µM) | relative viability ([4]; first compound 0.253 µM) | relative viability ([4]; first compound 0.8 µM) | relative viability ([4]; first compound 2.53 µM) | relative viability ([4]; first compound 8 µM)
1 | NCI-H2170 | 0.302 | 0.165 | 0.232 | 0.151 | 0.113 | 0.274 | 0.288 | 0.291 | 0.294 | 0.322 | 0.354 | 0.338 | 0.314 | 0.285 | 0.521 | 0.461 | 0.436 | 0.434 | 0.455
2 | HCC-366 | 0.106 | 0.0757 | 0.0691 | 0.0727 | 0.0401 | 0.149 | 0.13 | – | 0.0966 | 0.0889 | 0.166 | 0.156 | 0.108 | 0.0793 | 0.388 | 0.317 | – | 0.334 | 0.412
3 | NCI-H2405 | 0.284 | 0.135 | 0.103 | 0.0688 | 0.064 | 0.548 | 0.459 | 0.438 | 0.407 | 0.603 | 0.566 | 0.536 | 0.303 | 0.463 | 0.803 | 0.723 | 0.713 | 0.749 | 0.823
4 | COR-L 105 | 0.303 | 0.223 | 0.242 | 0.26 | 0.556 | 0.392 | 0.36 | 0.36 | 0.338 | 0.489 | 0.473 | 0.458 | 0.4 | 0.391 | 0.648 | 0.698 | 0.621 | 0.538 | 0.769
5 | 201T | 0.595 | 0.451 | 0.551 | 0.463 | 0.42 | 0.737 | 0.665 | 0.627 | 0.678 | 0.698 | 0.759 | 0.597 | 0.442 | 0.373 | 0.879 | 0.874 | 0.818 | 0.848 | 0.928
6 | NCI-H2228 | 0.187 | 0.139 | 0.325 | 0.116 | 0.0619 | 0.488 | 0.407 | 0.244 | 0.383 | 0.603 | 0.378 | 0.309 | 0.205 | 0.201 | – | – | – | – | –
7 | LC-2-ad | 0.591 | 0.159 | 0.143 | 0.0807 | 0.0527 | 0.63 | 0.533 | 0.34 | 0.416 | 0.445 | 0.57 | 0.442 | 0.324 | 0.231 | 0.954 | 0.945 | 0.57 | 0.823 | 0.9
8 | NCI-H2087 | 0.833 | 0.435 | 0.313 | 0.165 | 0.138 | 0.951 | 0.783 | 0.622 | 0.916 | 0.984 | 0.912 | 0.916 | 0.607 | 0.602 | 0.186 | 0.324 | 0.254 | 0.246 | 0.323
9 | NCI-H358 | 0.317 | 0.261 | 0.162 | 0.141 | 0.139 | 0.262 | 0.324 | 0.316 | 0.269 | 0.352 | 0.337 | 0.354 | 0.337 | 0.294 | 0.235 | 0.2 | 0.196 | 0.186 | 0.239
10 | H3255 | 0.325 | 0.238 | 0.145 | 0.135 | 0.0752 | 0.486 | 0.463 | 0.464 | 0.562 | 0.524 | 0.462 | 0.498 | 0.495 | 0.386 | 0.577 | 0.662 | 0.503 | 0.566 | 0.615
11 | NCI-H23 | 0.319 | 0.114 | – | 0.162 | 0.113 | 0.423 | 0.525 | 0.387 | 0.536 | 0.517 | 0.565 | 0.53 | 0.374 | 0.251 | 0.298 | 0.331 | 0.319 | 0.324 | 0.319
12 | CAL-12T | 0.303 | 0.0968 | 0.135 | 0.19 | 0.218 | 0.442 | 0.374 | 0.401 | 0.324 | 0.616 | 0.461 | 0.717 | 0.346 | 0.394 | – | – | – | – | –
13 | A-427 | 0.524 | 0.335 | 0.329 | 0.103 | 0.106 | 0.84 | 0.507 | 0.625 | 0.805 | 0.717 | 0.664 | 0.823 | 0.581 | 0.587 | 0.469 | 0.521 | 0.552 | 0.52 | 0.6
14 | HARA | 0.193 | 0.23 | 0.0859 | 0.0523 | 0.062 | 0.302 | 0.507 | – | 0.374 | 0.452 | 0.562 | 0.518 | 0.321 | 0.373 | 0.704 | 0.492 | 0.398 | 0.46 | 0.521
15 | NCI-H1793 | 0.534 | 0.248 | 0.277 | 0.191 | – | 0.275 | 0.329 | 0.271 | 0.351 | 0.344 | 0.37 | 0.376 | 0.303 | 0.247 | 0.406 | 0.521 | – | 0.486 | 0.588
16 | NCI-H2023 | 0.134 | 0.106 | 0.11 | 0.0886 | 0.0609 | 0.27 | 0.213 | 0.249 | 0.222 | 0.234 | 0.283 | 0.164 | 0.0894 | 0.0821 | 0.233 | 0.234 | 0.203 | 0.206 | 0.254
17 | ABC-1 | 0.256 | 0.164 | 0.112 | 0.0906 | 0.0638 | 0.987 | 0.849 | 0.539 | 0.542 | 0.979 | 0.885 | 0.682 | 0.59 | 0.599 | 1.04 | 1.09 | 1.02 | 0.821 | 1.16
18 | IA-LM | 0.266 | 0.323 | 0.256 | 0.0809 | 0.0459 | 0.439 | 0.371 | – | 0.352 | 0.419 | 0.459 | 0.286 | 0.256 | 0.209 | – | – | – | – | –
